Read-outs that look alike come from different tables or passages of the source.
Columns and labels:
Rat [1] = details: structural similar compounds of the TOPKAT report; ref NCI/NTP TR-358, NCI/NTP TR-138, NCI/NTP TR-336; cited from earlier work
Rat [2] = details: cited from earlier work
human VEGFR-2 = target: T1, human VEGFR-2 (Homo sapiens, UniProt P35968); assay: In vitro VEGFR-2 inhibition (Human VEGFR-2 ELISA kit); format: biochemical
T1 construct: MCF- 7 cell line; endogenous in cells; host or cells: MCF-7
T1 sequence (P35968 20-1356): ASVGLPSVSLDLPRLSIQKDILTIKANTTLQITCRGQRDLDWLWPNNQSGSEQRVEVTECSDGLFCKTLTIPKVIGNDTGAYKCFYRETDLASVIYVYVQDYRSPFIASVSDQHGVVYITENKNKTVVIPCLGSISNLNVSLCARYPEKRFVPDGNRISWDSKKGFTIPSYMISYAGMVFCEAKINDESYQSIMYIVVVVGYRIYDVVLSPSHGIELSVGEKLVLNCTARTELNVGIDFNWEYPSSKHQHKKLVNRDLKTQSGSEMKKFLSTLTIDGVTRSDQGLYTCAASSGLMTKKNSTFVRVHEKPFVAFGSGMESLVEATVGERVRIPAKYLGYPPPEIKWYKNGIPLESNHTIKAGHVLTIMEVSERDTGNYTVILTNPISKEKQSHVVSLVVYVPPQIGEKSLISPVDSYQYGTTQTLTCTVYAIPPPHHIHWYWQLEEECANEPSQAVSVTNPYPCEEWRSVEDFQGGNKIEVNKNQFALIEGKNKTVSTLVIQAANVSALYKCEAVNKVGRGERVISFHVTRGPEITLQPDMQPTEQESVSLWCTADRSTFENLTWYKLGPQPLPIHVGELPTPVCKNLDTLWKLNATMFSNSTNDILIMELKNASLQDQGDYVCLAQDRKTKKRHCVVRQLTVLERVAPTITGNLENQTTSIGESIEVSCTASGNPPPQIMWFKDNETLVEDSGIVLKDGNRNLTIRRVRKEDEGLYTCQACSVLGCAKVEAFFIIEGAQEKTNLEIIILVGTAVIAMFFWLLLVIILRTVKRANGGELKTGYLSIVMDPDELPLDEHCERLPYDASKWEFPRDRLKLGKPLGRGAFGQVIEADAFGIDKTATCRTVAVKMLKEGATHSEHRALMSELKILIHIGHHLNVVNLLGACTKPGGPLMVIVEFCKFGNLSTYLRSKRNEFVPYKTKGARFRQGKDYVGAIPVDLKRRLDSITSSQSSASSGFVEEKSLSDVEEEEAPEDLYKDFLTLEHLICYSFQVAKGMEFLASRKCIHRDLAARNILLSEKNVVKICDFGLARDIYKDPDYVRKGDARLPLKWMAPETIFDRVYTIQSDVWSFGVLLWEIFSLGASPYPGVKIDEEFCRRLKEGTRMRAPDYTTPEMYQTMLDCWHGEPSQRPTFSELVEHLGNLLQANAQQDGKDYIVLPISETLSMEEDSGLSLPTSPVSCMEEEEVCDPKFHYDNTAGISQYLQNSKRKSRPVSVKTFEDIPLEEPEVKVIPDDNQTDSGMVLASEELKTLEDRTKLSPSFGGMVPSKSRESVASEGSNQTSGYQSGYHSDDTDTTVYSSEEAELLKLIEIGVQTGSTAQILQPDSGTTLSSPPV

MCF7 cell line = assay: In vitro cytotoxicity, MCF7; format: cell-based
Experimental: (§1) The potential of T-1-NBAB as an anticancer agent has been highlighted through both in silico and in vitro studies, primarily due to its anti-VEGFR-2 properties. To further investigate T-1-NBAB’s cytotoxicity, it was tested against breast carcinoma epithelial cancer cell lines MCF7 and T47D.
(§2) The cytotoxic potential of T-1-NBAB against MCF7 and T47D cell lines was accomplished by MTT procedure.
(§3) Mammalian cell lines culture
(§4) MCF7 and T47D cell lines were cultured on DMEM media. The cultured media were supplemented with 200 mM L-glutamine, 10.0% fetal bovine serum (Lonza), and 1.0% penicillin/streptomycin. Cells were seeded into 25.0 cm tissue culture flasks and incubated at 37◦C in a 5.0% CO2 incubator for 24 h or till confluency.
(§5) The safety profiles of the tested compounds were checked on one non-cancerous cell line (vero) […]
(§6) A portion of 100.0 µl of 6×10^4 cell/ml cells was seeded into each well of a 96-well plate and then the plates were incubated at 37 °C in a humidified 5.0% CO2 incubator for 24 h. […]
(§7) The inoculated plates were incubated at the same growth conditions for another 24 h. At the end of incubation, cellular viability was assessed using MTS assay kit (Promega) according to […]
(§8) Anticancer activities of the tested compounds against MCF7 and T47D cell lines were quantified using MTS assay kit (Promega) as described by the Manufacturer. […]

T47D cell line = assay: In vitro cytotoxicity, T47D; format: cell-based
Experimental: as §1, §2, §3, §4, §5, §6, §7, §8

[3] = test system: Vero (normal epithelial) cell lines; assay: Safety assay on non-cancerous Vero cells; format: cell-based; details: Chlorocebus sabaeus, read-out: IC50 against Vero
Experimental: as §1
The cytotoxic potential of T-1-NBAB against non-cancerous (Vero) cell lines was accomplished by MTT procedure.
as §3, §4, §5
A portion of 100.0 µl of 6×10^4 cell/ml cells was seeded into each well of a 96-well plate and then the plates were incubated at 37 °C in a humidified 5.0% CO2 incubator for 24 h. At the end of incubation period, the exhausted medium was replaced with 100.0 µl of different concentrations of the designated treatment (prepared in RPMI medium starting from 1.0 mM).
as §7

MCF7 cells [4] = assay: Apoptosis assay, flow cytometry, Annexin V and PI double staining; format: cell-based
Experimental: The T-1-NBAB’s effect as an apoptotic agent was assessed via flow cytometry analysis, on MCF7 cells using Annexin V and PI double staining.
T-1-NBAB’s apoptotic potentials and effect on MCF7 cell cycle were accomplished by flow cytometry analysis technique.
In-vitro anticancer activity
Anticancer activities of the tested compounds against MCF7 and T47D cell lines were quantified using MTS assay kit (Promega) as described by the Manufacturer.
The selectivity index values of the tested compounds on cancer cells were calculated as described by Koch et al., with slight modifications; SI=IC50nc/IC50cc, where IC50nc: the IC50 value of the tested compound on normal cells and IC50cc: IC50 of the tested compound on cancer cell […]
In vitro EGFR kinase assay
The synthesized compound was estimated for their in vitro inhibition on human VEGFR-2 in MCF- 7 cell line; using ELISA kit. Firstly, a plate was used for the assay had been coated by an […]
2 inhibitor. Both standard and sample were added to the wells and incubated overnight at 4 ◦C, then washed. The biotinylated antibody was supplemented and further incubated for 1 h at room temperature. The unreacted, liberated antibody was then washed; followed by addition of HRP-conjugated streptavidin and incubated for 45 min at room temperature. Wells were washed and a TMB substrate solution was added and kept at room temperature for 30 min. Finally, the stop solution was added, and the intensity of the color produced was measured at 450 nm.
Concentration- inhibition response curve was established by GraphPad Prism 5.0. The IC 50 value was calculated as the concentration at which 50% of the cells could survive in comparison to […]
Flow cytometry analysis for apoptosis
Flow cytometry cell apoptosis analysis was used to investigate the apoptotic effect of the synthesized compound. […] The stained cells were measured using Epics XL-MCL™ Flow Cytometer and analyzed […]

MCF7 cells [5] = assay: Wound healing and migration assay; format: cell-based
Experimental: The wound healing assay, a simple and cost-effective procedure, can assess the mobility and repair capacity of cancerous cells. In this method, a scratch is created on a layer of cancer cells, and the initial width is recorded. The healing of the scratch was observed periodically for both untreated and treated cells. Throughout the study, images of the scratched areas from both groups were compared at the 0-hour and 48-hour time points.
Wound healing assay was accomplished for T-1-NBAB utilizing MCF7 cell lines. […]
Wound healing and migration assay
The wound healing assay allows the researcher to study cell migration and cell interactions. In […]
some cases also single cell migration can be analyzed and this assay can be imaged […]
1. Cells were seeded in 6 multi-well plates and cultured until confluent. It is important that all the cultures are confluent at the start of the experiment.
2. (yellow) pipette tip was used to make a straight scratch, simulating a wound. Often we make a scratch keeping the pipette tip under an angle of around 30 degrees to keep the scratch width limited. This allows imaging of both wound edges using the 10x objective.
The following equations are applied to calculate the healing and migration ratio Rat of migration (RM) = (wi – wf ) / t
Wi =average of intial wound width um
Wf= average of final wound width um
T = time span of the assay in hours
Percentage of wound clouser % ={ (At=0 – At=∆t ) / At=0 } 100 […]
At=∆t = wound area after n hours
Area difference % = (Ai – Af )

Mouse = test system: Mouse; parameters: method as in earlier work; details: structural similar compounds of the TOPKAT report; ref CPDB; cited from earlier work
Rats = details: structural similar compounds of the TOPKAT report; ref NIIRDN 6;688;82, 85ARAE 4;118;76/77, DRFUD4 2;393;77, YRTMA6 9;11;78, FMCHA2 -;C149;89, ARZNAD 30;2023;80; cited from earlier work
VEGFR-2 = test system: VEGFR-2; parameters: method as in PMID 35493991; details: read-out: VEGFR-2 inhibition IC50; cited from earlier work
[6] = structural similar compounds of the TOPKAT report, ref CPDB

**Q.** With `C[C@@H]1Cc2c(Cl)cc(C(=O)N[C@@H](Cc3ccccc3)C(=O)O)c(O)c2C(=O)O1` [OCHRATOXIN] as the molecule, how does the “Rat maximum tolerated dose gavage, Actual Endpoint (-log C)” value (Rat [1]) read?
**A.** The value was 6.284 -log C.

**Q.** For `CC(C)n1c(/C=C/C(O)CC(O)CC(=O)O)c(-c2ccc(F)cc2)c2ccccc21` (stereo not drawn) [Fluvastatin, reference compound], which “Carcinogenic potency TD50 rat, Actual Endpoint (-log C)” value (Rat [2]) is on record?
**A.** The value was 3.517 -log C.

**Q.** Which IC50 (human VEGFR-2) does the source give for `Cn1cnc2c1c(=O)n(CC(=O)Nc1ccc(C(=O)NCc3ccccc3)cc1)c(=O)n2C` [T-1-NBAB] here?
**A.** The IC50 was 0.115 µM.

**Q.** What about the IC50 (MCF7 cell line; Homo sapiens, breast cancer cell line MCF7, read-out: IC50 against MCF7) of the same molecule?
**A.** Its IC50 is 16.9 µM.

**Q.** What about the “Selectivity index (SI) against MCF7” value (MCF7 cell line; IC50 normal cells (Vero) / IC50 MCF7) of the same molecule?
**A.** The value was 4.1.

**Q.** And the IC50 (T47D cell line; Homo sapiens, breast cancer cell line T47D, read-out: IC50 against T47D)?
**A.** Its IC50 is 61.2 µM.

**Q.** And the “Selectivity index (SI) against T47D” value (T47D cell line; IC50 normal cells (Vero) / IC50 T47D)?
**A.** The value was 1.1.

**Q.** And the IC50 [3]?
**A.** Its IC50 is 68.4 µM.

**Q.** What about the “Apoptosis Late” value (MCF7 cells [4]; control 0.12) of the same molecule?
**A.** Its value is 2.88%.

**Q.** What about the “Apoptosis Early” value (MCF7 cells [4]; control 0.72) of the same molecule?
**A.** The value was 3.51%.

**Q.** What about the Necrosis (MCF7 cells [4]; control 2.21) of the same molecule?
**A.** The Necrosis was 9.37%.

**Q.** And the area difference (MCF7 cells [5]; 0 h vs 48 h, control 659.8333)?
**A.** The area difference was 112 µm².

**Q.** And the “RM (rate of migration)” value (MCF7 cells [5]; 48 h, control 13.74681)?
**A.** The value was 2.322 µm/h.

**Q.** And the Wound closure % (MCF7 cells [5]; 48 h, control 65.96135)?
**A.** Its Wound closure % is 12.16%.

**Q.** And the “Scratch area at 0h” value (MCF7 cells [5]; mean of five values)?
**A.** The value was 917.

**Q.** And the “Scratch area at 48 h” value (MCF7 cells [5]; mean of five values)?
**A.** Its value is 805.5.

**Q.** And the “Scratch width at 0h” value (MCF7 cells [5]; mean of five values)?
**A.** Its value is 916.0155.

**Q.** And the “Scratch width at 48 h” value (MCF7 cells [5]; mean of five values)?
**A.** The value was 804.5532.

**Q.** What about the “Reduction of scratch width after 48 hours” value (MCF7 cells [5]; untreated control closed 65.9%) of the same molecule?
**A.** The value was 12%.

**Q.** With `Cc1noc(NS(=O)(=O)c2ccc(N)cc2)c1C` [SULFISOOXAZOLE] as the molecule, how does the “Rat maximum tolerated dose gavage, Actual Endpoint (-log C)” value (Rat [1]) read?
**A.** Its value is 2.825 -log C.

**Q.** With `CC1(C)S[C@@H]2[C@H](NC(=O)COc3ccccc3)C(=O)N2[C@H]1C(=O)O` [[…]] as the molecule, how does the “Rat maximum tolerated dose gavage, Actual Endpoint (-log C)” value (Rat [1]) read?
**A.** The value was 2.545 -log C.

**Q.** Which “Carcinogenic potency TD50 mouse, Actual Endpoint (-log C)” value (Mouse) does the source give for `Cc1cccc(Nc2cc(Cl)nc(SCC(=O)NCCO)n2)c1C` [4-Chloro-6-(2,3-xylidino)-2-pyrimidinylthio(N-b-hydroxyethyl) acetamide] here?
**A.** Its value is 3.915 -log C.

**Q.** Which “Carcinogenic potency TD50 rat, Actual Endpoint (-log C)” value (Rat [2]; [6]) does the source give for `O=[N+]([O-])c1ccc(-c2nc(N(CCO)CCO)c3ccccc3n2)s1` [4-Bis(2-hydroxyethyl)amino-2-(5-nitro-2-thienyl)quinazoline] here?
**A.** Its value is 5.06 -log C.

**Q.** Which “Rat oral LD50, Actual Endpoint (-log C)” value (Rats) does the source give for `COC(=O)Nc1nc2cc(C(=O)c3ccc(F)cc3)ccc2[nH]1` [FLUBENDAZOLE] here?
**A.** The value was 2.088 -log C.

**Q.** For `C[C@@H]1Cc2c(Cl)cc(C(=O)N[C@@H](Cc3ccccc3)C(=O)O)c(O)c2C(=O)O1` [Ochratoxin A], which “Carcinogenic potency TD50 mouse, Actual Endpoint (-log C)” value (Mouse) is on record?
**A.** Its value is 4.799 -log C.

**Q.** What about the “Carcinogenic potency TD50 rat, Actual Endpoint (-log C)” value (Rat [2]; [6]) of the same molecule?
**A.** The value was 6.473 -log C.

**Q.** For `Cc1nc2ccccc2n(CC(=O)Nc2ccc(C(=O)Nc3cccc(Cl)c3)cc2)c1=O` [compound V], which IC50 (VEGFR-2) is on record?
**A.** Its IC50 is 0.0027 µM.

**Q.** Which “Rat oral LD50, Actual Endpoint (-log C)” value (Rats) does the source give for `COC(=O)Nc1nc2ccccc2n1C(=O)NCCCCCC#N` [CARBAMIC ACID; [1-[(5-CYANOPENTYL)CARBAMOYL]BENZIMIDAZOL-2-YL]-; METHYL ESTER] here?
**A.** Its value is 2.12 -log C.

**Q.** For `CC(C)(Oc1ccc(CCNC(=O)c2ccc(Cl)cc2)cc1)C(=O)O` [BEZAFIBRATE], which “Rat oral LD50, Actual Endpoint (-log C)” value (Rats) is on record?
**A.** The value was 1.946 -log C.

**Q.** Which “Rat oral LD50, Actual Endpoint (-log C)” value (Rats) does the source give for `NS(=O)(=O)c1cc(C(=O)O)cc(N2CCCC2)c1Oc1ccccc1` [PIRETANIDE] here?
**A.** The value was 1.811 -log C.

Reference: paper PMC11771932, “Integrated in silico and in vitro exploration of the anti-VEGFR-2 activities of a semisynthetic xanthine alkaloid inhibiting breast cancer” (PLOS ONE, 2025)
